Publication PMC9358002, “Synthesis and Discovery of Ligustrazine–Heterocycle Derivatives as Antitumor Agents” (Frontiers in Chemistry, 2022)

Legend:
Type in all cases: cell-based
[1] = test system: human breast cancer MCF-7; assay: MTT antiproliferative assay, MCF-7; details: Homo sapiens, MCF7, 48 h, 0–50 μM, read-out: Antiproliferative activity IC50 ± SEM, MCF-7
Procedure: (§1) The in vitro antiproliferative activity of 33 TMPH compounds was evaluated by MTT assay ([Medica et al., 2022]). Five types of TNBC-related cell lines (human breast cancer MCF-7 and MDA-MB-231, mouse breast cancer 4T1, mouse fibroblast L929, and human umbilical vein endothelial HUVEC cell lines) were used. The cell lines were obtained from the Shanghai Institute of Biochemistry and Cell Biology of the Chinese Academy of Sciences (Shanghai, China). The cell lines were cultured in DMEM supplemented with 1% penicillin–streptomycin solution (100×) and 10% FBS at 37°C under a humid atmosphere containing 5% CO2. After cell passage, cryopreservation, and resuscitation, the growth-inhibitory effects against the five cell lines were determined by MTT assay. The 33 TMPH compounds and the reference control drug cisplatin were dissolved in 0.1% DMSO solution. The cell lines were maintained in 96-well plates and subjected to each test compound (0–50 μM) at 37°C for 48 h. After treatment with 1 mg/ml MTT solution for 4 h, the formazan crystals were dissolved in each well. A microplate reader (Varioskan Flash 3001, Thermo Scientific) was used to determine the cell viability at 490 nm, and each experiment was repeated four times. The collected data were expressed as the mean ± SEM. The inhibitory concentration of the 34 compounds at 50% (IC50) was calculated via concentration–inhibition relationship regression by SPSS software.

[2] = test system: human breast cancer MDA-MB-231; assay: MTT antiproliferative assay, MDA-MB-231; details: for IC50: Homo sapiens, MDA-MB-231, MTT, 48 h, 0–50 μM, read-out: Antiproliferative activity IC50 ± SEM, MDA-MB-231; for SI, selectivity index: SI = IC50 (L929)/IC50 (MDA-MB-231)
Procedure: as §1

mouse breast cancer 4T1 = assay: MTT antiproliferative assay, 4T1; details: Mus musculus, 48 h, 0–50 μM, read-out: Antiproliferative activity IC50 ± SEM, 4T1
Procedure: as §1

mouse fibroblast L929 = assay: MTT antiproliferative assay, L929; details: Mus musculus, L929, 48 h, 0–50 μM, read-out: Antiproliferative activity IC50 ± SEM, L929
Procedure: as §1

[3] = test system: human umbilical vein endothelial HUVEC; assay: MTT antiproliferative assay, HUVEC; details: Homo sapiens, HUVEC, 48 h, 0–50 μM, read-out: Antiproliferative activity IC50 ± SEM, HUVEC
Procedure: as §1

[4] = test system: MCF-7, MDA-MB-231, 4T1, L929 and HUVEC cell lines; assay: MTT antiproliferative assay, statements over all five tested cell lines; details: range over all five tested cell lines, read-out: IC50 values ranging over the tested cell lines
Procedure: as §1

Row | Structure (SMILES) | IC50 [1] [µM] | IC50 [2] [µM] | SI, selectivity index [2] | IC50 (mouse breast cancer 4T1) [µM] | IC50 (mouse fibroblast L929) [µM] | IC50 [3] [µM] | IC50 [4] [µM]
1 | Cc1nc(C)c(C(=O)NCCCCCCCCNC(=O)c2ccc3ncccc3c2)nc1C [8–6] | > 20 | 1.02 ± 0.15 | >19.61 | 1.94 ± 0.03 | > 20 | > 20 | 
2 | Cc1nc(C)c(C(=O)NCCCCCCCCNC(=O)C=Cc2ccccc2)nc1C [8–1] | 10.99 ± 0.06 | 2.52 ± 0.08 | 6.58 | > 20 | 16.58 ± 0.12 | > 20 | 
3 | Cc1nc(C)c(C(=O)NCCCCCCCCCCNC(=O)c2ccc3ccccc3c2)nc1C [10–13] | 3.09 ± 0.13 | 4.6 ± 0.29 | 2.75 | 9.88 ± 0.22 | 12.64 ± 0.12 | 10.5 ± 1.24 | 1.61 to 19.5
4 | Cc1nc(C)c(C(=O)NCCCCCCCCNC(=O)c2ccc3ccccc3c2)nc1C [8–13] | > 20 | 2.44 ± 0.09 | 6.42 | 13.7 ± 0.24 | 15.7 ± 0.36 | 14.4 ± 0.03 | 
5 | Cc1nc(C)c(C(=O)NCCCCCCCCCCCCNC(=O)c2cc3ccccc3[nH]2)nc1C [12–4] | 3.23 ± 0.18 | 3.52 ± 0.12 | >5.68 | 6.62 ± 0.14 | > 20 | > 20 | 
6 | Cc1nc(C)c(C(=O)NCCCCCCCCCCCCNC(=O)C=Cc2ccc(Cl)cc2)nc1C [12–10] | 2.09 ± 0.06 | 2.42 ± 0.06 | 1.58 | 1.63 ± 0.03 | 3.82 ± 0.07 | 12.37 ± 0.09 | 1.61 to 19.5
7 | Cc1nc(C)c(C(=O)NCCCCCCCCCCCCNC(=O)C=Cc2ccccc2)nc1C [12–1] | 1.95 ± 0.06 | 2.78 ± 0.37 | 1.71 | 2.66 ± 0.05 | 4.75 ± 0.26 | 13.2 ± 1.12 | 1.61 to 19.5
8 | Cc1nc(C)c(C(=O)NCCCCCCCCCCNC(=O)c2cc3ccccc3o2)nc1C [10–2] | 4.19 ± 0.15 | 8.41 ± 0.18 | 1.39 | > 20 | 11.7 ± 0.81 | 16.6 ± 0.68 | 
9 | COc1cc(C=CC(=O)NCCCCCCCCCCNC(=O)c2nc(C)c(C)nc2C)cc(OC)c1OC [10–12] | 2.86 ± 0.08 | 3.41 ± 0.12 | >5.87 | > 20 | > 20 | > 20 | 
10 | COc1cc(C=CC(=O)NCCCCCCCCNC(=O)c2nc(C)c(C)nc2C)cc(OC)c1OC [8–12] | 5.38 ± 0.13 | 11.2 ± 0.12 | >1.78 | 10.2 ± 0.32 | > 20 | > 20 | 
11 | Cc1nc(C)c(C(=O)NCCCCCCCCNC(=O)c2ccc3cc[nH]c3c2)nc1C [8–9] | > 20 | 8.45 ± 0.14 | >2.37 | 3.74 ± 0.19 | > 20 | > 20 | 
12 | Cc1nc(C)c(C(=O)NCCCCCCCCCCNC(=O)C=Cc2ccc(Cl)cc2)nc1C [10–10] | 2.93 ± 0.05 | 2.83 ± 0.09 | 3.58 | > 20 | 10.1 ± 0.52 | 11.2 ± 0.38 | 
13 | Cc1nc(C)c(C(=O)NCCCCCCCCNC(=O)C=Cc2ccc(Cl)cc2)nc1C [8–10] | 2.84 ± 0.21 | 6.67 ± 0.16 | 0.82 | 2.48 ± 0.24 | 5.48 ± 0.06 | 4.54 ± 0.01 | 1.61 to 19.5
14 | Cc1nc(C)c(C(=O)NCCCCCCCCCCCCNC(=O)c2ccc3ncccc3c2)nc1C [12–6] | 2.04 ± 0.03 | 1.98 ± 0.15 | 2.70 | 4.18 ± 0.09 | 5.35 ± 0.17 | 7.03 ± 0.05 | 1.61 to 19.5
15 | Cc1nc(C)c(C(=O)NCCCCCCCCCCNC(=O)c2cc3ccccc3s2)nc1C [10–3] | 18.5 ± 1.34 | 4.16 ± 0.25 | 1.75 | 17.6 ± 1.16 | 7.26 ± 0.16 | > 20 | 
16 | Cc1nc(C)c(C(=O)NCCCCCCCCNC(=O)c2cc3ccccc3o2)nc1C [8–2] | 6.62 ± 0.15 | 6.1 ± 0.16 | >3.28 | 19.86 ± 0.16 | > 20 | 4.27 ± 0.07 | 
